{"source": "patent US20040043377A1", "about": "“Evaluation method for predicting pharmacokinetics of PM using PM liver cells of drug metabolozing enzyme cytochrome P450 having a genetic polymorphism” (Pfizer Inc, priority 2002, published 2004)", "key": {"[1]": {"molecular_target": "CYP2D6 (Homo sapiens, UniProt P10635)", "sequence (P10635 whole entry)": "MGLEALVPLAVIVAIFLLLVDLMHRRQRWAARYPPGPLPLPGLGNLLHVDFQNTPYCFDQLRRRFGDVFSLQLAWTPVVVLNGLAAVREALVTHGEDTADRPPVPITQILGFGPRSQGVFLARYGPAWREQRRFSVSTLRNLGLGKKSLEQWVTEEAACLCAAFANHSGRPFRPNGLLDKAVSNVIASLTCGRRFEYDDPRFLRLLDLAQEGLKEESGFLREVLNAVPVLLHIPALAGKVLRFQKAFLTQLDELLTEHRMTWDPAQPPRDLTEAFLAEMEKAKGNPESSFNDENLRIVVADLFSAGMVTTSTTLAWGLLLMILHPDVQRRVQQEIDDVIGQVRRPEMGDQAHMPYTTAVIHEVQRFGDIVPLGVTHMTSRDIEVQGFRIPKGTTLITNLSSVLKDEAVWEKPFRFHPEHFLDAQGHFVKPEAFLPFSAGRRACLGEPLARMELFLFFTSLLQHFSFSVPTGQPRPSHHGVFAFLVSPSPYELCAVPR", "settings": "cited from earlier work"}, "[2]": {"system": "isolated EM liver cells (Lot 70)", "test": "Dextromethorphan metabolism in cryopreserved isolated EM liver cells (Lot 70)", "type": "in vitro ADME, human", "protocol": "(§1) A preliminary test for evaluation metabolic reactions was conducted by selecting dextromethorphan (DM, analgesic agent) as the substrate of CYP2D6. Metabolism of DM in the clinical setting is known to proceed by N-demethylation, O-demethylation followed by glucuronic acid conjugation. CYP3A4 catalyzes the N-demethylation reaction, while CYP2D6 catalyzes the O-demethylation reaction. In PM of […], N-demethylation is known to proceed as a compensatory metabolic pathway of O-demethylation. In the present embodiment, metabolic reactions were examined for dextromethorphan using isolated PM liver cells of CYP2D6, and a discussion was made as to whether or not the pharmacokinetics of PM can be predicted.\n(§2) The cryopreserved isolated PM liver cells of PM of CYP2D6 that were used (Lot 64) and the cryopreserved isolated EM liver cells (Lot 70) were prepared at In Vitro Technologies (IVT), USA. Liver cells for which the activity of CYP3A4 was roughly equal to that of Lot 64 of the cryopreserved isolated PM liver cells were selected by referring to data provided by IVT for use as the cryopreserved isolated EM liver cells. The acquired cells consisted of 6×10^6 cells per vial for both lots.\nKrebs Henseleit buffer (adjusted to pH 7.4 following addition of calcium chloride dihydrate (0.373 g/L), sodium bicarbonate (2.1 g/L) and HEPES (1.5 g/L)) was used for the incubation medium. The cryopreserved human isolated liver cells were inoculated into a 96-well plate and used for testing while suspended in culture liquid. Dextromethorphan (DM), which is the substrate of CYP2D6, was added to the wells at final concentrations of 0.08, 0.4, 2, 10 and 50 μM and allowed to react at 37° C. The reaction liquid was sampled after 1 and 2 hours, and the parent compound (DM) along with dextrorphan (DEX: metabolite mainly produced by CYP2D6) and 3-methoxymorphinan (3-MM: metabolite mainly produced by CYP3A4) were respectively assayed. […]"}, "[3]": {"settings": "clinical dose level (about 20 mg/body); cited from earlier work"}, "[4]": {"system": "isolated PM liver cells of CYP2D6 (Lot 64)", "test": "Dextromethorphan metabolism in cryopreserved isolated PM liver cells of CYP2D6 (Lot 64)", "type": "in vitro ADME, human", "protocol": "as §1, §2\nKrebs Henseleit buffer (adjusted to pH 7.4 following addition of calcium chloride dihydrate (0.373 g/L), sodium bicarbonate (2.1 g/L) and HEPES (1.5 g/L)) was used for the incubation medium. The cryopreserved human isolated liver cells were inoculated into a 96-well plate and used for testing while suspended in culture liquid. Dextromethorphan (DM), which is the substrate of CYP2D6, was added to the wells at final concentrations of 0.08, 0.4, 2, 10 and 50 μM and allowed to react at 37° C. The reaction liquid was sampled after 1 and 2 hours, and the parent compound (DM) along with dextrorphan (DEX: metabolite mainly produced by CYP2D6) and 3-methoxymorphinan (3-MM: metabolite mainly produced by CYP3A4) were respectively assayed. In addition, with respect to assay of the conjugate (glucuronide), DEX obtained by hydrolysis following the addition of β-glucuronidase/allylsulfatase to the sampled reaction liquid was assayed, and the difference with DEX prior to hydrolysis was taken to be the amount of the conjugate. LC/MS/MS were used for analyzing the unchanged form and metabolites in the culture liquid.\nFurthermore, LC/MS/MS were carried out under the measurement conditions described below. HPLC: Waters 2790, MS: API365 Sciex, column: YMC J′ sphere ODS L80 2×35 mm, gradient: mobile phase A [CH3CN:10 mM CH3CO2NH4 aqueous solution=10:90], mobile phase B [CH3CN:10 mM CH3CO2NH4 aqueous solution=80:20], conditions [mobile phase flow rate 0.35 ml/minute, composition of mobile phase changed from A:B=100:0 to A:B=0:100 1 minute after sample injection, followed by allowing composition of A:B=0:100 to flow for 1 minute], MS/MS detection: DM=272.3/170.9, DEX=258.2/157.1, 3-MM=258.2/215.0, MDZ=326.1/291.1, 4-OH MDZ=342.1/324.1."}, "[5]": {"system": "PM liver microsomes", "test": "Metabolite formation in PM liver microsomes (Lot. No. HHM-0168)", "type": "in vitro ADME, human", "protocol": "Incubation reactions from the determination of the enzymatic kinetic parameters were carried out at a protein concentration of 0.2 mg/ml in 100 mM potassium phosphate, pH 7.4 containing 1.3 mM NADP^+, 0.93 mM NADH, 3.3 mM glucose-6-phosphate, 8 units/ml G-6-PDH, 3.3 mM MgCl2, and substrates. Reactions were initiated by the addition of NADP^+/NADH, and then terminated after 10 min incubation at 37° C. by the addition of ten-fold volume of acetonitrile containing an LC/MS/MS internal standard (Levallorphan at 100 ng/ml final conc.). The mixtures were centrifuged for 10 min, and supernatants were used for LC/MS/MS analyses to determine the production rates of metabolites."}}, "note": "Read-outs that look alike come from different tables or passages of the source.", "data": [{"smiles": "COc1ccc2c(c1)[C@]13CCCC[C@@H]1[C@H](C2)N(C)CC3", "note": "[DM, dextromethorphan]", "values": [{"measurement": "Km", "setting": "[1]", "result": "~2", "unit": "µM"}, {"measurement": "formation rate of 3-MM relative to DEX formation rate", "setting": "[2]; EM liver cells", "result": "less than one-tenth"}, {"measurement": "formation rate of metabolite DEX", "setting": "[2]; EM liver cells, DM 0.08-50 μM", "result": "increased concentration-dependently"}, {"measurement": "glucuronic acid conjugation reaction (DEX-glucuronide formation)", "setting": "[2]; isolated EM liver cells lot 70", "result": "clearly determined to proceed"}, {"measurement": "concentration of DM in the blood", "setting": "[3]", "result": "up to 1 μM"}, {"measurement": "DEX formation", "setting": "[4]", "result": "not detected"}, {"measurement": "3-MM formation rate versus EM liver cells", "setting": "[4]; CYP2D6 PM liver cells", "result": "greater than that in EM liver cells"}, {"measurement": "differences in 3-MM/1'OH-MDZ formation rate between PM and EM liver cells (hepatocytes)", "setting": "[4]; FIG. 5", "result": "large"}, {"measurement": "formation rate of 3-MM relative to DEX formation rate", "setting": "[4]; PM liver cells", "result": "comparable to the DEX formation rates"}, {"measurement": "DEX formation", "setting": "[4]; PM liver cells, DM 10 μM and 50 μM", "result": "formation of DEX was observed"}, {"measurement": "DEX formation", "setting": "[4]; PM, in the vicinity of concentration of DM in the blood (up to 1 μM)", "result": "only slight formation of DEX"}, {"measurement": "glucuronic acid conjugation reaction (DEX-glucuronide formation)", "setting": "[4]; isolated PM liver cells lot 64", "result": "clearly determined to proceed"}, {"measurement": "differences in 3-MM/1'OH-MDZ formation rate between PM and EM liver microsomes", "setting": "[5]; FIG. 6", "result": "not statically significance"}, {"measurement": "compensatory metabolic pathway", "setting": "[5]; PM microsomes", "result": "did not proceed"}]}]}
